From patent US20090246292A1, “ANTIMICROBIAL FORMULATIONS COMPRISING A QUINONE AND A COPPER SALT” (priority 2006, published 2009)
Read-outs that look alike come from different tables or passages of the source.

Tests used:
[1] = test system: P. acnes NCTC 737; assay: Minimum inhibitory concentration (MIC) assay; format: cell-based, Propionibacterium acnes
Source text: (§1) (a) Minimum Inhibitory Concentration (MIC) Assay
(§2) The culture media were as described above.
(§3) The assays included both negative (culture medium with no micro-organisms) and positive (culture medium plus diluting solvent plus micro-organism) controls.

[2] = test system: P. acnes NCTC 737; assay: Minimum bactericidal concentration (MBC) assay; format: cell-based, Propionibacterium acnes
Experimental: (§4) (b) Minimum Bactericidal Concentration (MBC) Assay
(§5) Following incubation they were examined visually for bacterial growth.

[3] = test system: S. aureus ATCC 29213; assay: Minimum inhibitory concentration (MIC) assay; format: cell-based, Staphylococcus aureus
Source text: as §1, §2, §3

[4] = test system: S. aureus ATCC 29213; assay: Minimum bactericidal concentration (MBC) assay; format: cell-based, Staphylococcus aureus
Experimental: as §4, §5

[5] = test system: P. acnes NCTC 737; assay: Disc diffusion assay (DDA), also supplemented;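 also: paper disc carrying compound placed on inoculated Wilkins-Chalgren Anaerobe agar pH 6.0, with lipid or NaCl supplement where listed, anaerobic 37 °C for 72 h, inhibition zone diameter read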
Experimental: (§6) The propionibacteria were cultured and maintained on Wilkins-Chalgren Anaerobe Medium (agar and broth) at pH 6.0; all cultures were incubated anaerobically at 37° C. for 72 hours.
(d) Disc Diffusion Assay (DDA)
(§7) A sterile paper disc was impregnated with a sample of the test compound in a suitable solvent and 30 minutes allowed for the solvents to evaporate (where possible). The disc was then placed on an agar plate onto which the test micro-organism had been inoculated. The plate was then incubated under the conditions described above, following which it was examined visually for signs of bacterial growth. […] The diameter of this zone of “inhibition” was measured using a ProtoCOL™ automated zone sizer (Synbiosis, Cambridge, UK).
(f) Supplemented Disc Diffusion Assays
(§8) For assays using Propionibacterium spp. strains the supplements used in the examples below were lipid (either Tween™ 80 or triolein, both at 1% v/v) and sodium chloride (100 mM).

[6] = test system: S. aureus ATCC 29213; assay: Disc diffusion assay (DDA), also supplemented
Experimental: The staphylococci were cultured and maintained on Mueller-Hinton Medium (agar and broth) at pH 7.2; cultures were incubated aerobically at 37° C. for 19-20 hours.
(d) Disc Diffusion Assay (DDA)
as §7
(f) Supplemented Disc Diffusion Assays
(§9) For assays using S. aureus ATCC 29213 the supplements used were sodium chloride (100 mM), lipid (Tween™ 80 at 1% v/v) and horse serum (5% v/v).

[7] = test system: P. acnes NCTC 737; assay: Synergy disc diffusion assay (SDDA), also supplemented
Experimental: as §6
(e) Synergy Disc Diffusion Assay (SDDA)
(§10) This is a variation on the DDA method, in which two compounds are tested together for their combined antimicrobial activity.
(§11) Two test compounds A and B were placed on a single paper disc and the above described DDA procedure repeated.
(f) Supplemented Disc Diffusion Assays
as §8

[8] = test system: S. aureus ATCC 29213; assay: as above
Experimental: (e) Synergy Disc Diffusion Assay (SDDA)
as §10, §11
(f) Supplemented Disc Diffusion Assays
as §9

[9] = copper salt alone, P. acnes NCTC 737
[10] = copper salt alone, S. aureus ATCC 29213
[11] = copper salt alone, 200 μg per disc (silicate 62 μg), sodium chloride (100 mM)
[12] = copper salt + TBHQ on one disc, 200 μg of each (silicate 62 μg), unsupplemented
[13] = copper salt + TBHQ vs larger zone of either compound alone, unsupplemented
[14] = copper salt + TBHQ, salt and lipid (1% (v/v) Tween 80)
[15] = copper salt + TBHQ, unsupplemented
[16] = copper salt + TBHQ, salt and serum supplements
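For SS SDDA area increase in this document: disc diffusion on Mueller-Hinton agar at pH 7.2, aerobic incubation at 37 °C lasting 19-20 h, two compounds assessed jointly for combined antimicrobial effect.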
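For SS SDDA increase in this document: disc diffusion on Mueller-Hinton agar at pH 7.2, aerobic incubation at 37 °C lasting 19-20 h, two compounds assessed jointly for combined antimicrobial effect.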
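For SS SDDA with TBHQ in this document: disc diffusion on Mueller-Hinton agar at pH 7.2, aerobic incubation at 37 °C lasting 19-20 h, two compounds assessed jointly for combined antimicrobial effect.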

Compound `[Cu+].[I-]` [Copper (I) iodide] has an MIC [1, 9] of 7.8 µg/mL, an MIC/MBC ratio [1, 9] of 0.25 and an MBC [2, 9] of 31.25 µg/mL. The MIC [3, 10] was greater than 250 µg/mL, the MBC [4, 10] was greater than 250 µg/mL and the “DDA + lipid” value ([5]; copper salt alone, 200 μg per disc (silicate 62 μg), 1% (v/v) Tween 80) was 34.64 mm. The “DDA + salt & lipid” value ([5]; copper salt alone, 200 μg per disc (silicate 62 μg), salt and 1% (v/v) Tween 80) was 46.20 mm, the “DDA + salt” value [5, 11] was 43.92 mm and the “DDA + lipid” value ([6]; copper salt alone, 200 μg per disc (silicate 62 μg), Tween 80 at 1% v/v) was 0 mm. For the same compound, the “DDA + salt & serum” value ([6]; copper salt alone, 200 μg per disc (silicate 62 μg), salt and horse serum (5% v/v)) was 0 mm, the “DDA + salt” value [6, 11] was 0 mm and the “SL SDDA with TBHQ” value ([7]; copper salt + TBHQ on one disc, 200 μg of each (silicate 62 μg), salt and lipid (1% (v/v) Tween 80)) was 64.77 mm. For the same compound, the “SDDA with TBHQ” value [7, 12] was 70.08 mm, the SDDA increase [7, 13] was 21.48 mm and the “SL SDDA area increase” value [7, 14] was 96.51%. The “SL SDDA increase” value [7, 14] was 18.56 mm, the SDDA area increase [7, 15] was 107.92% and the “SS SDDA with TBHQ” value ([8]; copper salt + TBHQ on one disc, 200 μg of each (silicate 62 μg), salt and serum supplements) was 45.26 mm. For the same compound, the “SDDA with TBHQ” value [8, 12] was 52.74 mm, the SDDA increase [8, 13] was 12.32 mm and the “SS SDDA area increase” value [8, 16] was 7.37%. The “SS SDDA increase” value [8, 16] was 1.58 mm and the SDDA area increase [8, 15] was 70.25%.
`O.O=C([O-])C(O)C(O)C(=O)[O-].[Cu+2]` (centres unmarked) [Copper (II) tartrate hydrate] gave an MIC [1] of 15.6 µg/mL, an MIC/MBC ratio [1] of 0.25 and an MBC [2] of 62.5 µg/mL. The MIC [3] was greater than 250 µg/mL, the MBC [4] was greater than 250 µg/mL and the DDA [5] was 49.64 mm. For the same compound, the “DDA + lipid” value [5] was 38.35 mm, the “DDA + salt” value [5] was 48.25 mm and the “DDA + salt & lipid” value [5] was 47.56 mm. For the same compound, the DDA [6] was 0 mm, the “DDA + lipid” value [6] was 0 mm and the “DDA + salt” value [6] was 0 mm. The “DDA + salt & serum” value [6] was 0 mm, the SDDA area increase [7] was 20.27% and the SDDA increase [7] was 4.8 mm. For the same compound, the “SDDA with TBHQ” value [7] was 54.44 mm, the “SL SDDA area increase” value [7] was 24.11% and the “SL SDDA increase” value [7] was 5.42 mm. For the same compound, the “SL SDDA with TBHQ” value [7] was 52.98 mm, the SDDA area increase [8] was −88.71% and the SDDA increase [8] was −26.84 mm. The “SDDA with TBHQ” value [8] was 13.58 mm, the “SS SDDA area increase” value [8] was −94.19% and the “SS SDDA increase” value [8] was −33.15 mm. For the same compound, the “SS SDDA with TBHQ” value [8] was 10.53 mm.
For `CC(=O)[O-].CC(=O)[O-].[Cu+2]` [Copper (II) acetate], the MIC [1] was 7.8 µg/mL, the MIC/MBC ratio [1] was 0.25 and the MBC [2] was 31.25 µg/mL. It also gave an MIC [3] greater than 250 µg/mL, an MBC [4] greater than 250 µg/mL and a DDA [5] of 53.61 mm. The “DDA + lipid” value [5] was 42.06 mm, the “DDA + salt” value [5] was 48.25 mm and the “DDA + salt & lipid” value [5] was 49.54 mm. The DDA [6] was 0 mm, the “DDA + lipid” value [6] was 0 mm and the “DDA + salt” value [6] was 0 mm. The “DDA + salt & serum” value [6] was 0 mm, the SDDA area increase [7] was 56% and the SDDA increase [7] was 13.35 mm. The “SDDA with TBHQ” value [7] was 66.96 mm, the “SL SDDA area increase” value [7] was 64.92% and the “SL SDDA increase” value [7] was 14.08 mm. The “SL SDDA with TBHQ” value [7] was 63.62 mm, the SDDA area increase [8] was 1.59% and the SDDA increase [8] was 0.32 mm. The “SDDA with TBHQ” value [8] was 40.74 mm, the “SS SDDA area increase” value [8] was −57.34% and the “SS SDDA increase” value [8] was −15.15 mm. The “SS SDDA with TBHQ” value [8] was 28.53 mm.
`CC(=O)[O-].[Cu+]` [Copper (I) acetate] gave an MIC [1] of 7.8 µg/mL, an MIC/MBC ratio [1] of 0.25 and an MBC [2] of 31.25 µg/mL. It also gave an MIC [3] greater than 250 µg/mL, an MBC [4] greater than 250 µg/mL and a DDA [5] of 52.04 mm. The “DDA + lipid” value [5] was 45.46 mm, the “DDA + salt” value [5] was 49.48 mm and the “DDA + salt & lipid” value [5] was 52.15 mm. For the same compound, the DDA [6] was 0 mm, the “DDA + lipid” value [6] was 0 mm and the “DDA + salt” value [6] was 0 mm. The “DDA + salt & serum” value [6] was 0 mm, the SDDA area increase [7] was 84.62% and the SDDA increase [7] was 18.67 mm. The “SDDA with TBHQ” value [7] was 70.71 mm, the “SL SDDA area increase” value [7] was 59.77% and the “SL SDDA increase” value [7] was 13.77 mm. The “SL SDDA with TBHQ” value [7] was 65.91 mm, the SDDA area increase [8] was 16.25% and the SDDA increase [8] was 3.16 mm. For the same compound, the “SDDA with TBHQ” value [8] was 43.58 mm, the “SS SDDA area increase” value [8] was −51.82% and the “SS SDDA increase” value [8] was −13.36 mm. The “SS SDDA with TBHQ” value [8] was 30.32 mm.
